Data taken from patent US20200367493A1, “BIOCONTROL ENHANCERS” (YEDA RESEARCH AND DEVELOPMENT CO. LTD., priority 2016, published 2020).
Entries after “also recorded” stand apart in the source; their conditions may differ.

Legend:
[1] = tested on: B. subtilis 3610; experiment: Pellicle assay (floating biofilm formation in MSgg medium); type: cell-based, Bacillus subtilis; conditions: for biofilm formation (promotion/induction/enhancement): B. subtilis 3610, 1 μM of the natural compound, compared with not treated; for pellicle formation (inhibition): B. subtilis, 1 μM
Text: B. subtilis, NCBI 3610 (hereafter referred to as “3610”), forms robust and highly structured biofilms in liquid medium. When inoculated into a standing culture of minimal medium, 3610 initially grows planktonically as motile, single cells. The cells then migrate to the air-liquid interface, where they proliferate as long chains of non-motile cells. These chains are highly ordered in parallel patterns and are bound together tightly, presumably by an extracellular matrix (ECM), to form a floating biofilm (pellicle). Growth of the bundled chains continues, giving rise to larger biofilm structures that include the fruiting bodies. Thus, we consider pellicles as a highly robust setting for the study of B. subtilis biofilms
Two different assays were used to screen a natural compounds library (AnalytiCon Discovery GmbH Germany (http://www.ac-discovery.com/) for biofilm formation. A Petri Assay was used to observed changes in structure and size of biofilms, while a Pellicle Assay was used to study biofilm inhibitors and biofilm induction (FIG. 1).
The protocol for the pellicle essay comprised the following steps:
A 2× solution of rich, defined biofilm-inducing MSgg medium (Branda, S. S., Gonzalez-Pastor, J. E., Ben-Yehuda, S., Losick, R. & Kolter, R. Fruiting body formation by Bacillus subtilis. Proceedings of the National Academy of Sciences of the United States of America 98, 11621-11626, doi:10.1073/pnas.191384198 (2001)), without the calcium chloride and iron(III) chloride hexahydrate was prepared. After filter sterilization, the calcium chloride was added. The medium was ready to use directly or it could be stored at 4° C. in the dark.
A 1× dilution medium was prepared on the day of the experiment. The 2× MSgg medium was diluted to 1× with sterile distilled water (pellicles) or sterile 3% hot (80° C.) agar (biofilms) and iron(III) chloride hexahydrate added to a final concentration of 50 μM (pellicles) or […] (biofilms). Molecules for screening were then added.
Compared to the original MSgg recipe (Branda, S. S., et al. (2001) ibid), the medium used contained 50 μg/ml threonine and the iron concentration to grow biofilm colonies on solid MSgg medium was increased 2.5× to optimize the wrinkled colony morphology. After solidification of the agar, dry the solid MSgg plates in a biological hood for 30-45 min prior to the inoculation.
The next step was to streak out B. subtilis from a −80° C. stock (a LB culture of 10^9 cells/ml frozen in 20% glycerol) to isolate single colonies on a LB-1.5% agar plate with a sterile tip or applicator stick. Cultures were grown overnight at 30° C.
Following this, a single colony was picked from the LB-1.5% agar plate for growth in 3 ml LB broth at 37° C. for 4 hours in a shaking incubator (shaking speed 200 rpm) The LB broth was replaced with biofilm-inducing MSgg medium prior to inoculation by centrifuging 1 ml starter culture for 3 min at 6000 g, carefully removing the supernatant and re-suspending the pellet in 1 ml MSgg medium. The rest of the culture can be discharged.
During the growth of the starter culture, a 12-well cell-culture multidish plate containing 3 ml of MSgg medium without or with a concentration range of the small molecules (natural products to be tested) was prepared. To rule out edge effects, the location of the different concentrations was distributed across the multidish plate. Alternatively, use 24-well cell-culture multidish plates containing 1.5 ml of MSgg medium was used.
The wells of the 12-well cell-culture multidish plate were inoculated with […] of the washed starter culture (1:1000 dilution). In certain embodiments, a lower dilution ratio, i.e. 1:500 could be used. This decreases the development time of the pellicles.
Grow the pellicles at 23° C. was under static conditions for three days. The pellicles were no moved during this time, as it could affect the final surface morphology of the pellicle.
Pictures of the pellicles were taken with a high resolution camera. […]

[2] = tested on: sinI; experiment: sinI transcription, sinI promoter fused to luciferase reporter; type: cell-based, Bacillus subtilis; conditions: 1 μM; PsinI-luciferase, luminescence divided by OD600
Protocol: (§1) Planktonic growth, attachment to surfaces, induction of extracellular matrix genes tapA-sipW-tasA operon sinI regulator involved in biofilm formation, and biofilm development was measured and compared amongst the natural compounds identified by the screen. For the analysis for enhancement of biofilm formation and transcription of matrix genes 1 uM aqueous solutions comprising each natural compound were tested.
(§2) Gene expression: Gene expression was measure using reporter genes (luciferase or green fluorescent protein) Luminescence of a strains harboring sacA: PsinI-luciferase was measure in the presence or absence of 1 μM of the natural compounds presented in FIGS. 2A and 2B. Fluorescence of a strain harboring sacA::PtapA-gfp was measured in presence or absence of 1 μM of the natural compounds shown in FIGS. 2A and 2B. Results are a representative of six independent experiments; the SD represents an average of 5 wells.
(§3) The expression of SinI, the matrix regulator, was measured as was the expression of tapA-sipW-tasA operon, in the absence and presence of the natural compounds listed in FIG. 2B. Specifically, sinI transcription was monitored. SinI transcription is a direct readout for the activity of the genetic pathway resulting in matrix production and biofilm formation. sinI transcription in biofilm-inducing medium was monitored using the sinI promoter fused to luciferase.

[3] = tested on: tapA-sipW-tasA operon; experiment: tapA-sipW-tasA transcription, PtapA-gfp reporter; type: cell-based, Bacillus subtilis; conditions: B. subtilis; matrix genes (sinI, tapA reporters); 1 μM
Protocol: as §1, §2, §3

[4] = tested on: B. subtilis; experiment: Planktonic growth; type: cell-based, Bacillus subtilis; conditions: 1 μM
Protocol: as §1

[5] = tested on: P. sytingae pv tomato; experiment: Submerged biofilm formation, crystal violet staining of attached cells; type: cell-based
Text: Similar to Example 1, a Pellicle Assay was used to study biofilm inhibitors (FIG. 1). Analysis of submerged biofilm formation by P. sytingae pv tomato included staining attached cells with crystal violet and quantified as known in the art (Mol Microbiology 28:449-461).

Compound	biofilm formation (promotion/induction/enhancement) [1]	transcription of sinI [2]	transcription expression of matrix genes [3]	pellicle formation (inhibition) [1]	effect on planktonic growth [4]	attachment in the plant pathogen (inhibition) [5]
C=C[C@H]1[C@H](OC2OC(CO)C(O)C(O)C2O)OC=C(C(=O)OC)[C@H]1CCOC(=O)c1cc(O)c(O)c(O)c1 (stereo partly drawn) [cornuside, (2S,3R,4S)-methyl 2-((3,4,5-trihydroxy-6-(hydroxymethyl)tetrahydro-2H-pyran-2-yl)oxy)-4-(2-((3,4,5-trihydroxybenzoyl)oxy)ethyl)-3-vinyl-3,4-dihydro-2H-pyran-5-carboxylate]	enhance biofilm formation; also recorded: promoted, induced, and enhanced	significantly enhanced	enhance transcription expression of matrix genes			
eupahakonenin B				blocked pellicle formation	inert to planktonic growth	
COc1cc2oc(-c3ccc(O)c(O)c3)c(OC)c(=O)c2c(O)c1OC [2-(3,4-dihydroxyphenyl)-5-hydroxy-3,6,7-trimethoxy-4H-chromen-4-one]	enhance biofilm formation; also recorded: promoted, induced, and enhanced	significantly enhanced	enhance transcription expression of matrix genes			
CCCCCc1cc(O)c(C/C=C(\C)CCC=C(C)C)c(O)c1 [(E)-2-(3,7-dimethylocta-2,6-dien-1-yl)-5-pentylbenzene-1,3-diol]				blocked pellicle formation; also recorded: mildly inhibited	inert to planktonic growth	strongly inhibited attachment
COc1cc(O)c2c(=O)c(O[C@@H]3O[C@H](CO)[C@@H](O)[C@H](O)[C@H]3O[C@@H]3O[C@H](CO)[C@@H](O)[C@H](O)[C@H]3O)c(-c3ccc(O)c(O)c3)oc2c1 [3-(((2S,3R,4S,5S,6R)-4,5-dihydroxy-6-(hydroxymethyl)-3-(((2S,3R,4S,5S,6R)-3,4,5-trihydroxy-6-(hydroxymethyl)tetrahydro-2H-pyran-2-yl)oxy)tetrahydro-2H-pyran-2-yl)oxy)-2-(3,4-dihydroxyphenyl)-5-hydroxy-7-methoxy-4H-chromen-4-one]	enhance biofilm formation; also recorded: promoted, induced, and enhanced	significantly enhanced	enhance transcription expression of matrix genes			
COc1cc(-c2cc(=O)c3c(O)c(OC)c(OC)c(O)c3o2)ccc1O [isothymonin, 5,8-dihydroxy-2-(4-hydroxy-3-methoxyphenyl)-6,7-dimethoxy-4H-chromen-4-one]	enhance biofilm formation; also recorded: promoted, induced, and enhanced	significantly enhanced	enhance transcription expression of matrix genes			
